Key:
[1] = test system: HBV; assay: Anti-HBV activity, HepG2.117 cell line, intracellular HBV DNA by real-time PCR; type: cell-based, Hepatitis B virus; settings: Hepatitis B virus, 72 h; mean value; HepG2.117 cells, 3 days of treatment, intracellular HBV DNA; read-out: HBV-AVE-HepG2.117 EC50
Experimental: The anti HBV activity was measured using the HepG2.117 cell line, a stable, inducibly HBV producing cell line, which replicates HBV in the absence of doxicycline (Tet-off system). The HepG2 cell line is available from ATCC® under number HB-8065. Transfection of the HepG2 cell line can be as described in Sun and Nassal 2006 Journal of Hepatology 45 (2006) 636-645 “Stable HepG2- and Huh7-based human hepatoma cell lines for efficient regulated expression of infectious hepatitis B virus”.
For the antiviral assay, HBV replication was induced, followed by a treatment with serially diluted compound in 96-well plates. After 3 days of treatment, the antiviral activity was determined by, quantification of intracellular HBV DNA using real-time PCR and an HBV specific primer set and probe.

[2] = Cytotoxicity, ATPlite Luminescence Assay; type: cell-based, human; settings: human, HepG2.117 cells; mean value; cells incubated for 3 days, viability by ATPlite; read-out: TOX-HepC2.117 CC50
Experimental: Cytotoxicity of the compounds was tested using HepG2 or HepG2.117 cells, incubated for 3 days in the presence of compounds. The viability of the cells was assessed using the PERKIN ELMER ATPlite Luminescence Assay System.”

Row | Structure (SMILES) | EC50 [1] [nM] | CC50 at 3 days [2] [nM]
1 | O=C(c1ccc(Cl)c(Cl)c1)N1CCc2nn3c(c2C1)-c1ncoc1CCC3 [Compound 40, (3,4-Dichlorophenyl)(4,5,6,9,10,12-hexahydro-11H-[1,3]oxazolo[4,5-c]pyrido-[4′,3′:3,4]pyrazolo[1,5-a]azepin-11-yl)methanone] | 499 | > 50000
2 | Cc1onc2c1CCn1nc3c(c1-2)CN(C(=O)c1ccc(Cl)c(Cl)c1)CC3 [Compound 2] | 921 | 41900
3 | O=C(c1ccc(Cl)c(Cl)c1)N1CCc2nn3c(c2C1)-c1n[nH]cc1CCC3 [Compound 41, (3,4-Dichlorophenyl)(2,5,6,9,10,12-hexahydropyrazolo[3,4-c]pyrido[4′,3′,3,4]pyrazolo[1,5-a]-azepin-11(4H)-yl)methanone] | 749 | 25600
4 | O=C(c1ccc(Cl)c(Cl)c1)N1CCc2nn3c(c2C1)-c1n[nH]cc1CC3 [Compound 6, (3,4-Dichlorophenyl)(2,4,5,8,9,11-hexahydro-10H-pyrazolo[3,4-c]pyrazolo[1,5-a:4,3-c′]-dipyridin-10-yl)methanone] | 208 | > 50000
5 | COC1Cc2conc2-c2c3c(nn2C1)CCN(C(=O)c1ccc(Cl)c(Cl)c1)C3 (stereo not shown) [Compound 20, (3,4-Dichlorophenyl)(5-methoxy-5,6,9,10-tetrahydro-4H-isoxazolo[3,4-c]pyrido[4′,3′:3,4]-pyrazolo[1,5-a]azepin-11(12H)-yl)methanone] | 300 | > 50000
6 | O=C(c1ccc(Cl)c(Cl)c1)N1CCc2nn3c(c2C1)-c1nocc1CC(CO)C3 (stereo not shown) [Compound 27] | 393 | > 50000
7 | Cc1onc2c1CCCn1nc3c(c1-2)CN(C(=O)c1ccc(Cl)c(Cl)c1)CC3 [Compound 12, (3,4-Dichlorophenyl)(3-methyl-5,6,9,10-tetrahydro-4H-[1,2]oxazolo[3,4-c]pyrido[4′,3′:3,4]-pyrazolo[1,5-a]azepin-11(12H)-yl)methanone] | 835 | 31100
8 | O=C(O)C1Cc2conc2-c2c3c(nn2C1)CCN(C(=O)c1ccc(Cl)c(Cl)c1)C3 (stereo not shown) [Compound 29, 11-(3,4-Dichlorobenzoyl)-5,6,9,10,11,12-hexahydro-4H-[1,2]oxazolo[3,4-c]pyrido[4′,3′:3,4]-pyrazolo[1,5-a]azepine-5-carboxylic Acid] | 15500 | > 50000
9 | CNC(=O)[C@H]1Cc2conc2-c2c3c(nn2C1)C[C@@H](C)N(C(=O)c1ccc(Cl)c(Cl)c1)C3 (single isomer, unassigned) [Compound 48] | 19 | > 50000
10 | O=C(c1ccc(Cl)c(Cl)c1)N1CCc2nn3c(c2C1)-c1nocc1CC(O)(CO)C3 (stereo not shown) [Compound 18, (3,4-Dichlorophenyl)[5-hydroxy-5-(hydroxymethyl)-5,6,9,10-tetrahydro-4H-[1,2]oxazolo-[3,4-c]pyrido[4′,3′:3,4]pyrazolo[1,5-a]azepin-11(12H)-yl]methanone] | 1050 | > 50000
11 | O=C(c1ccc(Cl)c(Cl)c1)N1CCc2nn3c(c2C1)-c1nc[nH]c1CCC3 [Compound 44, (3,4-Dichlorophenyl)(4,5,6,9,10,12-hexahydroimidazo[4,5-c]pyrido[4′,3′:3,4]pyrazolo[1,5-a]azepin-11(3H)-yl)methanone] | 574 | > 50000
12 | O=C(c1ccc(Cl)c(Cl)c1)N1CCc2nn3c(c2C1)-c1nocc1CC3 [Compound 1, (3,4-Dichlorophenyl)(4,5,8,9-tetrahydro[1,2]oxazolo[3,4-c]pyrazolo[1,5-a:4,3-c′]dipyridin-10(11H)-yl)methanone] | 1130 | > 50000
13 | CNC(=O)C1(O)Cc2conc2-c2c3c(nn2C1)CCN(C(=O)c1ccc(Cl)c(Cl)c1)C3 (stereo not shown) [Compound 22, 11-(3,4-Dichlorobenzoyl)-S-hydroxy-N-methyl-5,6,9,10,11,12-hexahydro-4H-[1,2]oxazolo-[3,4-c]pyrido[4′,3′:3,4]pyrazolo[1,5-a]azepine-5-carboxamide] | 130 | > 50000
14 | Cn1ncc2c1-c1c3c(nn1CC2)CCN(C(=O)c1ccc(Cl)c(Cl)c1)C3 [Compound 9, (3,4-Dichlorophenyl)(1-methyl-1,4,5,8,9,11-hexahydro-10H-pyrazolo[3,4-c]pyrazolo-[1,5-a:4,3-c′]dipyridin-10-yl)methanone] | > 50000 | > 50000
15 | O=C(c1cnc(Cl)c(Cl)c1)N1CCc2nn3c(c2C1)-c1nocc1CC(O)C3 (stereo not shown) [Compound 53] | > 10000 | > 50000
16 | O=C(c1ccc(Cl)c(Cl)c1)N1CCc2nn3c(c2C1)-c1nocc1CCC3 [Compound 11] | 300 | > 46200
17 | CNC(=O)[C@H]1Cc2conc2-c2c3c(nn2C1)CCN(C(=O)c1ccc(Cl)c(Cl)c1)C3 (single isomer, unassigned) [Compound 31, (5*S)-11-(3,4-Dichlorobenzoyl)-N-methyl-5,6,9,10,11,12-hexahydro-4H-[1,2]oxazolo[3,4-c]pyrido[4′,3′:3,4]pyrazolo[1,5-a]azepine-5-carboxamide] | 47 | > 50000
18 | Cn1cnc2c1CCCn1nc3c(c1-2)CN(C(=O)c1ccc(Cl)c(Cl)c1)CC3 [Compound 45, (3,4-Dichlorophenyl)(3-methyl-4,5,6,9,10,12-hexahydroimidazo[4,5-c]pyrido[4′,3′:3,4]pyrazolo-[1,5-a]azepin-11(3H)-yl)methanone] | 4970 | > 50000
19 | CCc1onc2c1CCCn1nc3c(c1-2)CN(C(=O)c1ccc(Cl)c(Cl)c1)CC3 [Compound 13, (3,4-Dichlorophenyl)(3-ethyl-5,6,9,10-tetrahydro-4H-[1,2]oxazolo[3,4-c]-pyrido[4′,3′:3,4]pyrazolo[1,5-a]azepin-11(12H)-yl)methanone] | 2940 | 26600
20 | CN(C)C(=O)C1Cc2conc2-c2c3c(nn2C1)CCN(C(=O)c1ccc(Cl)c(Cl)c1)C3 (stereo not shown) [Compound 36, 11-(3,4-Dichlorobenzoyl)-N,N-dimethyl-5,6,9,10,11,12-hexahydro-4H-[1,2]oxazolo[3,4-c]pyrido[4′,3′:3,4]pyrazolo[1,5-a]azepine-5-carboxamide] | 686 | > 50000
21 | CCc1onc2c1CCn1nc3c(c1-2)CN(C(=O)c1ccc(Cl)c(Cl)c1)CC3 [Compound 3, (3,4-dichlorophenyl)(3-ethyl-4,5,8,9-tetrahydro[1,2]oxazolo[3,4-c]pyrazolo[1,5-a:4,3-c′]dipyridin-10(11H)-yl)methanone] | 1440 | 47000
22 | O=C(c1ccc(Cl)c(Cl)c1)N1CCc2nn3c(c2C1)-c1oncc1CCC3 [Compound 39, (3,4-Dichlorophenyl)(4,5,6,9,10,12-hexahydro-11H-[1,2]oxazolo[5,4-c]pyrido[4′,3′:3,4]-pyrazolo[1,5-a]azepin-11-yl)methanone] | 1340 | 43600
23 | O=C(c1ccc(Cl)c(Cl)c1)N1CCc2nn3c(c2C1)-c1ncsc1CCC3 [Compound 46, (3,4-Dichlorophenyl)(4,5,6,9,10,12-hexahydro-11H-pyrido[4′,3′:3,4]pyrazolo[1,5-a][1,3]-thiazolo[4,5-c]azepin-11-yl)methanone] | 236 | 27100
